Where two headings read alike, the source gives them in different places.
Columns and labels:
293 cells [1] = experiment: SEAP assay: iMC (tandem FKBP) scaffold plus FRBL2-Caspase-9; format: cell-based; conditions: tandem FKBPs (iMC) present
Protocol: FIGS. 16A and 16B are line graphs showing that tandem FKBP scaffold mediates FRBL2. Caspase activation in the presence of rapalogs. FIG. 16A. HEK-293 cells were transfected with 1 μg each of SRα-SEAP reporter plasmid, Δmyr.iMC.2A-anti-CD19.CAR.CD3ζ (pBP0608), and FRBL2. Caspase-9 (pBP0467). […] After ON incubation, cell supernatants were assayed for SEAP activity, as previously described. FIG. 16B. Similar to the experiment described in (FIG. 16A), except that cells were transfected with a membrane-localized (myristoylated) iMC.2A-CD19.CAR.CD3ζ (pBP0609), instead of non-myristoylated Δmyr.iMC.2A-CD19.CAR.CD3ζ (pBP0608).
In a second test for rapalog-mediated scaffold-based activation of Caspase-9, 293 cells were transiently transfected with SRα-SEAP reporter plasmid, plus myristoylated or non-myristoylated inducible iMC co-expressed with 1st generation anti-CD19 CAR, plus FRBL2-fused Caspase-9 (plasmid pBP0467) (FIG. 16).

293T cells = experiment: SeAP reporter assay: FRBL-Caspase9 plus FKBPv12-Caspase9 heterodimerization; format: cell-based; conditions: FRBL-Caspase 9 plus FKBPV12-Caspase 9
Protocol: HEK 293T cells (5×10^5) were seeded on a 100-mm tissue culture dish in 10 mL DMEM4500, supplemented with glutamine, penicillin/streptomycin and 10% fetal calf serum. After 16-30 hours incubation, cells were transfected using Novagen's GeneJuice® protocol. Briefly, for each transfection, 0.5 mL OptiMEM was pipetted into a 1.5-mL microcentrifuge tube and 15 μL GeneJuice reagent added followed by 5 sec. vortexing. Samples were rested 5 minutes to settle the GeneJuice suspension. DNA (5 μg total) was added to each tube and mixed by pipetting up and down four times. Samples were allowed to rest for 5 minutes for GeneJuice-DNA complex formation and the suspension added dropwise to one dish of 293T cells. […]
24 hours after drug stimulation, 96-well plates were wrapped to prevent evaporation and incubated at 65° C. for 2 hours to inactivate endogenous and serum phosphatases while the heat-stable SeAP reporter remains (1, 4, 12). […] Phosphatase activity was measured by fluorescence with excitation at 355 nm and emission at 460 nm. […]
FIG. 37—Drug induced programmed cell death by homodimerization or heterodimerization of tagged caspase 9. […] Reporter activity is expressed as a percentage of the average of 8 control wells containing no drug. […]
FIG. 38—Rapalog-induced cell death switch. […] Reporter activity is expressed as a percentage of the average of 8 wells containing no drug. […]

[2] = test system: iRC9 T cells (pBP1310, GFP-Fluc); experiment: In vivo apoptotic activation in NSG mice, iRC9 T cells (IVIS imaging, spleen FACS); design: species or system mouse; conditions: 10 mg/kg rapamycin i.p., at 24 hours, FIG. 109D
Protocol: (§1) PBMCs from donor 676 were activated and co-transduced with one of the off-switches and GFP-Fluc retroviruses. Eleven days after transduction, cells were analyzed for transduction efficiency with GFP and anti-CD3/anti-CD19 antibodies (FIG. 109A). […] The CD19^+ MFI for the different T cell populations were: iC9=15.07, iRC9=14.38, and iRmC9=13.39. The cells were collected, counted, washed, and resuspended at 1×10^6 cells in 100 μl PBS for each tail vein mouse injection (Table 10) (time=−18 hr). […] IVIS imaging was performed at −14, 0, 5, 24 and 29 hours. Mice were sacrificed and spleens were collected for FACS analysis with hCD3, hCD19 and mCD45 antibodies. […] The higher percentage of remaining iRmC9 T cells observed may be due to an artifact of normalizing the no drug group.
PBMCs from donor 676 were activated and co-transduced with retroviruses encoding the pBP0220, 1310, 1327 vectors and the GFP-Fluc plasmid. (FIG. 109A) Eleven days post transduction, the cells were analyzed for CD19 and GFP transduction efficiency prior to injection into mice. (FIGS. 109B & C) NSG mice were injected i.v. with 107 T cells co-transduced with GFP-Fluc per mouse and suicide drugs were injected i.p. the next day. Bioluminescence of cells was assessed at −14, 0, 5, 24, and 29 hours post-drug administration. […]

293 cells [3] = experiment: 293 cells transfected with iC9 or iRC9: caspase 3/7 (IncuCyte) and SRα SEAP assays; format: cell-based
Protocol: 293 cells were seeded at 300,000 cells/well in a 6-well plate and allowed to grow for 2 days. After 48 h, cells were transfected with 1 μg of experimental plasmids. Cells were harvested 48 h after transfection and diluted 2.5× their original volume.
For FIG. 52B left graph, the lines of the graph, as indicated at the 10^3 point of the x-axis are, from top to bottom, negative control, FKBP.FRB.C9, FRB.FKBP.C9, iC9. For FIG. 52B right graph, the lines of the graph at the 10^3 point of the x-axis are, from top to bottom negative control, iC9, FKBP.FRB.C9, and FRB.FKBP.C9.
On day 0, 5×10^5 293 cells were seeded onto 6-well plates in 2 ml DMEM medium (10% FBS+1% pen/strep). […] On day 2, cells were collected, and seeded onto 96-well plates containing 2× concentrated half-log drug dilutions and also analyzed by FACS for transfection efficiency. On day 3, the drug-treated cells were heat inactivated at 68° C. for 1 hour and supernatants were added to black 96-well plate containing 1 mM MUP substrate (2× concentration) diluted in 2M diethanolamine. The plates were incubated at 37° C. for 30 min and absorbance at 405 nm was measured.

HPAC PSCA+ tumor cells = experiment: T cell anti-tumor assay with HPAC-RFP cells (IncuCyte, ELISA); format: cell-based, human; conditions: 10 nM on day 7 of co-culture
Protocol: PBMCs from donor 920 were activated and co-transduced with GFP-Ffluc and iMC+CARζ-T (189), i9+CARζ+MC (873), or FwtFRBC9/MC.FvFv (1308)-encoding vectors. […] (A & B) Two days post-seeding, culture supernatants were analyzed for IL-2, IL-6, and IFN-γ production by ELISA. […] Numbers of HPAC-RFP and T cell-GFP at the E:T 1:2 ratio was analyzed using the basic analyzer software for the IncuCyte at day 7 (Ci) and day 8 with 0 nM suicide drug (Cii) and 10 nM suicide drug (Ciii). Similar analysis was also performed at the 1:5 E:T ratio (D). (Note: the y-axis in Ci and Di are at log-scale).
The HPAC PSCA^+ tumor cells were stably labeled with nuclear-localized RFP protein using the NucLight™ Red Lentivirus Reagent (Essen Bioscience, 4625). To set up the coculture, 4000 HPAC-RFP cells were seeded per well of 96-well plates in 100 μl of CTL medium without IL-2 for at least 4 hours to allow tumor cells to adhere. After transduction with the appropriate retrovirus and allowed to rest for at least 7 days in culture, T were seeded according to various E:T ratios to the HPAC-RFP-containing 96-well plates. […] Each plate was set up in duplicates, one plate to monitor with the IncuCyte cell imaging system and one plate for supernatant collection for ELISA assay on day 2. The plates were centrifuged for 5 min at 400×g and placed inside the IncuCyte (Essen Bioscience, Dual Color Model 4459) to monitor red fluorescence (and green fluorescence if T cells were labeled with GFP-Ffluc) every 2-3 hours for a total of 7 days at 10× objective. Image analysis was performed using the “HPAC-RFP_TcellsGFP_10×_MLD” processing definition. On day 7, HPAC-RFP cells were analyzed using the “Red Object Count (1/well)” metric. […] On day 8, Tcell-GFP cells were analyzed using the “Total Green Object Integrated Intensity” metric. Each condition was performed at least in duplicates and each well was imaged at 4 different locations.

[4] = test system: iRmC9 T cells (pBP1327, GFP-Fluc); experiment: In vivo apoptotic activation in NSG mice, iRmC9 T cells (IVIS imaging, spleen FACS); design: species or system mouse; conditions: 5 mg/kg rimiducid or 10 mg/kg rapamycin i.p.; spleen FACS, FIG. 109D
Protocol: as §1
PBMCs from donor 676 were activated and co-transduced with retroviruses encoding the pBP0220, 1310, 1327 vectors and the GFP-Fluc plasmid. (FIG. 109A) Eleven days post transduction, the cells were analyzed for CD19 and GFP transduction efficiency prior to injection into mice. (FIGS. 109B & C) NSG mice were injected i.v. with 107 T cells co-transduced with GFP-Fluc per mouse and suicide drugs were injected i.p. the next day. Bioluminescence of cells was assessed at −14, 0, 5, 24, and 29 hours post-drug administration. (FIG. 109D) At 29-h post-drug treatment, mice were euthanized and spleens were collected for flow cytometry analysis with antibodies to hCD3, […], and mCD45

293 cells [5] = test system: 293 cells
Source text: To determine if the polarity of heterodimerization and Caspase-9 assembly could be reversed, one to four 1 to 4 tandem copies of FKBP12 were subcloned into expression vector, pSH1, as above. […] As above, 293 cells were transfected with the SRα-SEAP reporter plasmid along with FRBL-ΔCaspase-9, plus a non-myristoylated scaffold protein containing 1 or 4 tandem copies of FKBP12.

293 cells [6] = experiment: SEAP assay: FRB-tagged CAR plus iCaspase-9 in 293 cells; format: cell-based; conditions: FRB-tagged CAR plus FKBP-tagged Caspase-9
Source text: FIGS. 6A and 6B provide the results of an assay of two-tiered activation of apoptosis.
As a proof of principal, two tandem FRB, domains were fused to either a 1st generation Her2-CAR or to a 1st generation CD19-CAR co-expressing inducible Caspase-9. 293 cells were transiently transfected with a constitutive reporter plasmid, SRα-SEAP, along with normalized levels of expression plasmids encoding Her2-CAR-FRB2, iCaspase-9, Her2-CAR-FRBl2+iCasp9, iC9-CAR(19).FRBl2 (coexpressing both CD19-CAR-FRBl2 and iCaspase9), or control vector. […] After overnight incubation with drugs, SEAP activity was determined. […] This dose-dependent decrease required the presence of both the FRB-tagged CAR and the FKBP-tagged Caspase-9. […] Moreover, on- or off-target-mediated CAR clustering should increase the sensitivity of killing primarily at the site of scFv engagement.

293 cells [7] = test system: 293 cells; remark: listed apart in the source
Protocol: FIG. 12B: Cultures of HEK-293 cells were transfected (via Genejuice, Novagen) with the constitutive SRα-SEAP reporter plasmid (pBP0046, 1 μg), a fusion of human FKBP12 with human Caspase-9 (pBP0044, 2 μg) and FRB-encoding expression constructs, containing four copies of FRBL (pBP0725, 2 μg) or control vectors encoding zero or one copy of FRBL.
To determine if iCaspase-9 could be aggregated by tandem multimers of FRBL, one to four tandem copies of FRBL were subcloned into an expression vector, pSH1, driving transgene expression from an SRα promoter. […] 293 cells were transfected with the SRα-SEAP reporter plasmid along with FKBP12-ΔCaspase-9 (iCaspase-9/iC9), plus 1 of several FRB-based, non-myristoylated scaffold proteins containing 0, 1, or 4 tandem copies of FRBL.

[8] = test system: EGFPluciferase-labeled T cells; experiment: In vivo function of rapamycin/rimiducid-inducible Caspase-9 switches in NSG mice (luciferase-labeled T cells)
Protocol: T cells were activated and co-transduced with the “iMC+CARζ”, SFG-iMC-2A-CAR.ζ vector, and a iC9-X vector, SFG-FRB.FKBP12.C9-2A-ΔCD19 to create a CombiCAR.
8-week-old female, immune-deficient mice (NOD.CgPrkdc^scidIl2^tm1Wjl/SzJ; NSG) were injected IV with 1×10^6 T cells in 100 p1 PBS. Mice were subjected to IVIS imaging ˜4 hrs after T cell injection (˜14 hrs post-drug administration). […] Mice were imaged again at 5-6 hrs, and 24 hrs after drug injection. Mice were sacrificed and spleens were removed for FACS analysis.
Mice were imaged for firefly luciferase-derived bioluminescence at the indicated time points relative to administration of drug or vehicle.

[9] = test system: dual-switch TCR-modified T cells; conditions: 10 nM Rap; 14±4% without drug
[10] = test system: T cells expressing ΔC9 alone (pBP1501); experiment: T cell killing assay with caspase 3/7 green reagent monitored by IncuCyte, negative control ΔC9; format: cell-based, human; conditions: increasing doses, FIG. 108B
Source text: To determine the functionality of these switches in activated T cells, retroviral supernatants were produced and transduced into PBMCs activated from 3 separate donors.

SMILES: COC1CC(CC(C)C2CC(=O)C(C)C=C(C)C(O)C(OC)C(=O)C(C)CC(C)C=CC=CC=C(C)C(OC(C)C)CC3CCC(C)C(O)(O3)C(=O)C(=O)N3CCCCC3C(=O)O2)CCC1O (stereo not drawn) [C7-isopropoxy-rapamycin, C7-isopropoxyrapamycin]
- activation of FRBL2-Caspase-9 (293 cells [1]): activated
- cell death (loss of SeAP reporter) (293T cells): dose-dependent high efficacy cell death switch

SMILES: CO[C@H]1C[C@@H]2CC[C@@H](C)[C@@](O)(O2)C(=O)C(=O)N2CCCC[C@H]2C(=O)O[C@H]([C@H](C)C[C@@H]2CC[C@@H](O)[C@H](OC)C2)CC(=O)[C@H](C)/C=C(\C)[C@@H](O)[C@@H](OC)C(=O)[C@H](C)C[C@H](C)/C=C/C=C/C=C/1C [rapamycin]
- iRC9 T cells remained in splenocytes compared to no drug- and rimiducid-treated groups [2]: ~25%
- rapamycin concentration at which iRC9 is highly active (293 cells [3]): 100 µM
- elimination of FwtFRBC9/MC.FvFv T cells within 24 hours (HPAC PSCA+ tumor cells): more than 60%
- iRmC9 T cells remained in splenocytes (normalized to no drug group) [4]: ~40%
- IC50 (293 cells [5]): ~3 nM
- maximal decrease of SEAP activity (293 cells [6]): ~50%
- IC50 (293 cells [7]): ~3 nM
- cell death of T cells within 24 hours in vivo [8]: 90%
- Annexin-V+ cells [9]: 72±5%
- activity of negative control ΔC9 alone (pBP1501) in T cells [10]: not active

Reference: patent US20230065562A1, “DUAL CONTROLS FOR THERAPEUTIC CELL ACTIVATION OR ELIMINATION” (Bellicum Pharmaceuticals, Inc., priority 2015, published 2023)
